ChEMBL document CHEMBL2094269, “WEHI/Eskitis Trypanosoma b. brucei screening data”

Experiments:
[1] = DNDI: Cytotoxicity against human MRC-5 lung fibroblast cells.; conditions: IC50
[2] = tested on: Trypanosoma brucei brucei; test: microbe, parasite or virus in culture; assay type: functional, organism-based, STIB 795
Description: DNDI: Inhibition of Human African Trypanosomiasis (HAT), STIB 795, in vitro

IC50 [2] [µM]	IC50 ([2]; Trypanosoma brucei, STIB 795) [µM]	Structure (SMILES)	IC50 [1] [µM]
1.83	2.45	OCCNC1CCCc2c1[nH]c1ccc(Br)cc21 (centres undefined)	> 20.8
	5.63	Cc1ccc(CN(C)C)c(O)c(=O)c1	> 20.8
	4.59	NCC(c1ccc(Cl)cc1)c1ccc(-c2ccccc2)cc1 (centres undefined)	> 41.7
	4.87	C/C(Cl)=C\CN1C(=O)C(=O)c2cc(Cl)ccc21	> 41.7
	5.06	O=c1nc2oc3ccc4ccccc4c3cc-2c(=O)[nH]1	> 20.8
	0.41	COC(=O)c1ccccc1N/N=C1\C(=N)ON=C1N	> 41.7
	0.498	CC(C)OCc1cc(CN2CCOCC2)c(O)c2ncccc12	0.91
	2.88	CCc1c(C)nc(-n2nc(C)cc2NC(=O)c2ccccc2Cl)[nH]c1=O	> 20.8
	5.72	Cc1cccc2c1NC(=O)C2(c1ccc(O)cc1)c1ccc(O)cc1	> 20.8
	1.21	COc1ccc(/C(N)=N/OC(=O)c2ccccc2Cl)cc1	> 20.8
	1.79	CC1(C)CC(NC2=C(Cl)C(=O)c3ccccc3C2=O)CC(C)(C)N1	5.07
	5.53	NCCCCCOC(c1ccc(F)cc1)c1ccc(F)cc1	> 41.7
	1.74	O=C(NNC(=O)c1ccccn1)c1cccc(Br)c1	> 4.17
	3.47	CN1c2ccccc2N(C)C1c1ccc(O)cc1	> 41.7
	4.02	Oc1cccnc1NC(c1ccc(Cl)cc1)c1ccc2cccnc2c1O (centres undefined)	> 41.7
	5.83	CCN1CCN(C(c2cccnc2)c2cc(Cl)c3cccnc3c2O)CC1 (centres undefined)	> 41.7
	1.16	CC(C)=CC1C(C(=O)O/N=C(\N)c2ccccc2)C1(C)C (centres undefined)	> 41.7
	≤ 0.044	CN(C)c1cc[n+](Cc2c(Cl)cccc2Cl)cc1	> 41.7
	5.21	CC1(C)CCC[C@]2(C)C=C(C3OCCO3)C(=O)C[C@@H]12	> 41.7
	< 0.004	CN(C)c1ccc(/C=C/c2sc3ccc4ccccc4c3[n+]2C)cc1	> 2.08
	3	N=C(N)N/N=C(/C=C(\c1ccc(Cl)cc1)n1ccnc1)c1ccc(Cl)cc1	> 10.4
	0.734	CC(C)CC[n+]1ccccc1C=Cc1ccc(N(C)C)cc1	> 10.4
	4.08	CN(C)CCCn1c(N)c(-c2nc3ccccc3[nH]2)c2nc(C#N)c(C#N)nc21	> 41.7

IC50 [2] [µM]	IC50 ([2]; Trypanosoma brucei, STIB 795) [µM]	Structure (SMILES)	IC50 [1] [µM]
	5.85	Cc1ccc(-n2nnnc2CNC(=O)c2cccs2)cc1C	> 41.7
	4.68	CC1(C)N=C(N)N=C(N)N1OCc1cccc(C2CCCCC2)c1	> 41.7
	4.94	CN(C)S(=O)(=O)c1ccc(C(=O)Nc2nnc(-c3ccc(F)cc3)o2)cc1	> 41.7
	4.25	COc1ccc(C(=O)C(C)N2C=CC=C/C2=C2\C=CC=CN2)cc1 (centres undefined)	> 41.7
	4.3	COc1ccc(C(CC(=O)c2ccncc2)SCc2ccco2)cc1 (centres undefined)	> 41.7
	1.95	COC(=O)N/N=C\c1ccc(-c2ccccc2Cl)o1	> 41.7
	0.028	C[n+]1ccccc1C=C1C=CN(c2ccc(Cl)cc2)C=C1	> 4.17
	3.91	Cc1cc(C)c2nc(C)cc(Nc3ccc4c(c3)OCCO4)c2c1	> 41.7
	4	CCCCNCc1cc(Br)c(OCc2ccc(F)cc2)c(OC)c1	> 41.7
	1.44	CCN(CC)c1ccc(/C=N/NC(=O)c2nn(C)cc2Cl)c(O)c1	> 41.7
	1.4	O=C(CSc1cccc2cccnc12)c1ccc(Cl)cc1Cl	> 41.7
	4.73	Cc1cc(F)ccc1NC(=O)Nc1ccc(-c2noc(C3CCC3)n2)cc1	> 41.7
	2.74	CCCCc1ccc(NC(=S)NC2CC(C)(C)NC(C)(C)C2)cc1	> 20.8
	0.47	CC(C)NC[C@]1(C)CCC[C@]2(C)c3ccc(C(C)C)cc3CC[C@@H]12	> 41.7
	5.07	CN1CCN(Cc2cc(Br)c3cccnc3c2O)CC1	> 4.17
	0.064	COC(=O)c1[nH]cc2c3cccnc3c3ncccc3c12	0.59
	4.91	Cn1c(Cc2ccccc2)nn(C2CC(=O)C3OCC2O3)c1=S (centres undefined)	> 41.7
	4.83	CC(=O)Nc1ccc(C)cc1S(=O)(=O)NCCn1c(C)nc2ccccc21	> 41.7
	0.253	CN1/C(=C/C=C/c2oc3ccccc3[n+]2C)Oc2ccccc21	> 2.08
	5.21	CC1(C)OC(C)(C)/C(=C/c2ccc3cccnc3c2)C1=O	> 20.8
	5.26	CC(C)(C)c1ccc2c(c1)OCCOCCOCCOCCO2	> 20.8
	5.45	CC(C)Cc1ccc(C(C)C(=N)NC2CCCCC2)cc1 (centres undefined)	> 20.8
	2.37	COc1ccc(C)cc1/N=N/c1ccc(O)c2nc(/C=N/O)ccc12	> 20.8

IC50 [2] [µM]	IC50 ([2]; Trypanosoma brucei, STIB 795) [µM]	Structure (SMILES)	IC50 [1] [µM]
	1.97	CN(/C=C/C=C/C=C/C1=[N+](C)c2ccccc2C1(C)C)c1ccccc1	> 20.8
	0.294	c1ccc2cc3c(NCCCNC4CCCCC4)ccnc3cc2c1	4.93
	3	Cc1nnc(N/N=C/c2cc(Br)ccc2O)nc1O	3.41
	3.3	Cc1cc(C)c2c(c1)CC(C)(C)C(=O)C2=O	> 41.7
	4.15	Nc1nc(NN2CCCCC2)nc(-c2cc(Cl)ccc2O)n1	> 20.8
	1.66	Cc1nc2ncnn2c(Sc2ccccc2NC(=O)c2cccc(F)c2)c1C	> 20.8
	7.88	O=C(COc1ccccc1)N/N=C/c1sc2ccccc2c1O	> 20.8
	10.2	CCOC(=O)c1ccc(Nc2nnc(C(C)(C)C)c(O)n2)cc1	> 41.7
	5.18	O=C(NNc1cccccc1=O)c1ccccc1	> 10.4
0.59	0.642	CC1(C)CC(=O)C(C2=C(Cl)C(=O)c3ccccc3C2=O)=C(O)C1	> 41.7
	0.718	c1ccc(Nc2nc(-c3ccccn3)cs2)nc1	> 10.4
	5.64	Cc1ccccc1OCCn1c(=N)n(CC(C)C)c2ccccc21	> 20.8
	3.41	CN(C)CCNC(=O)c1ccc(COc2ccc(Cl)cc2Cl)cc1	> 20.8
	1.9	CNCCC(Sc1ccc(C(F)(F)F)cc1)c1ccccc1 (centres undefined)	> 20.8
	0.338	Cc1cccc(C(=N)NOC(=O)c2ccoc2C)c1	> 10.4
	5.25	Cc1cccc(-n2nnn(C3CC(=O)C4OCC3O4)c2=S)c1C (centres undefined)	> 41.7
	0.327	Fc1ccc(C(=CCCn2ccnc2)c2ccc(F)cc2)cc1	7.02
	0.426	CCC(C)NC(=O)c1nc(-c2ccccc2)cnc1N (centres undefined)	> 41.7
	4.84	S=C(N/N=C(/c1ccccc1)c1ccccn1)Nc1ccccc1	> 4.17
	0.294	CC[n+]1c(/C=C/c2c[nH]c3ccccc23)ccc2cc(C)ccc21	3.71
	≤ 1.08	COc1ccccc1C(=O)c1sc(Nc2ccc3c(c2)OCCO3)nc1N	> 1.04
	5.22	CC(C)C1CC(CCNCc2ccc(N(C)C)cc2)(c2ccccc2)CCO1 (centres undefined)	> 41.7
	1.6	O=C1/C(=C\c2ccccc2F)COC/C1=C\c1ccccc1F	> 41.7

IC50 [2] [µM]	IC50 ([2]; Trypanosoma brucei, STIB 795) [µM]	Structure (SMILES)	IC50 [1] [µM]
	≤ 10.4	O=C(N/N=C/c1cc(Cl)ccc1O)c1ccc(F)cc1	> 20.8
	5.55	CCOc1cc2c(cc1OCC)C(c1ccc(Br)cc1)NCC2 (centres undefined)	> 41.7
	2.43	Cc1cc(NCCN2CCCCC2)c2ccc3ccccc3c2n1	> 20.8
	5.32	COc1cc(OC)nc(-n2ncc(Cl)c(Cl)c2=O)n1	4.53
	5.39	CN(C)CCCNc1nn2c(=O)c3ccccc3nc2c2ccccc12	> 4.17
	4.78	COC(=O)c1nc(-c2ccccc2)nc(-c2ccccc2)c1C(=O)OC	> 4.17
	5.64	CCOc1cc2c(cc1OCC)C(c1ccc(Cl)cc1)NCC2 (centres undefined)	> 20.8
	2.57	CN(C)CCCN(C)Cc1ccccc1Sc1ccc2ccccc2c1	> 41.7
	3.87	Oc1c(/N=N/c2ccc3cccc(O)c3n2)ccc2ccccc12	> 20.8
	4.84	COCCN1CSC(=S)N(Cc2ccco2)C1	> 4.17
	0.798	COc1ccc(/C(N)=N/OC(=O)c2cc(OC)c(OC)cc2OC)cc1OC	> 41.7
	5.55	O=C1/C(=C/c2ccccc2)CCS(=O)(=O)c2ccccc21	> 41.7
	0.604	N/C(Cc1cccc2ccccc12)=N\OC(=O)N1CCOCC1	> 20.8
	4.86	CCc1ccc2nc3nc(C)cc(C)c3c(N)c2c1	> 20.8
	3.21	C=CCNc1nc(N)c(/C(N)=N\C#N)s1	> 41.7
	5.73	C=CCS(=O)(=O)c1nc2ccccc2s1	> 20.8
	1.31	CC1=NN(c2ccc3cccc(O)c3n2)C(=O)C1	> 10.4
	1.22	Cc1ccccc1C(=O)Nc1ccccn1	> 41.7
	5.38	CCCCOc1ccccc1/C=N/NC(=N)N	> 41.7
	6.86	COCC(=O)N/N=C/c1ccc(SCC(=O)Nc2ccc3ccccc3c2)o1	> 41.7
	0.494	CCc1nnc(NC(=O)c2cc3ccc4ccc(C)nc4c3[nH]2)s1	> 41.7
	1.51	CCOc1cc(-n2ncc(Cl)c(Cl)c2=O)nc(SC)n1	> 4.17

Structure (SMILES)	IC50 [2] [µM]	IC50 ([2]; Trypanosoma brucei, STIB 795) [µM]	IC50 [1] [µM]
CCC1(C)CC(CCNCc2ccccc2O)(c2ccc(F)cc2)CCO1 (centres undefined)		4.73	> 41.7
OC12C[C@@H](C3CO[C@@H]1O3)n1nnnc1N2		4.84	> 20.8
COc1ccc(CNCCc2c[nH]c3ccccc23)c(OC)c1C		5.26	> 20.8
N=c1c2c(n(Cc3ccc(Cl)cc3Cl)c3c1CCC3)CCCC2		0.842	> 41.7
CC(Cc1ccccc1)[n+]1[cH-]/c(=N\C(=N\Cc2ccccc2)N(C)C)on1 (centres undefined)		0.83	> 41.7
